Key:
mu opioid receptor = molecular target: T1, mu opioid receptor (Rattus norvegicus, UniProt P33535); assay: Rat Brain Mu Opioid Receptor Binding Assay; conditions: rat forebrain membrane preparation; [3H]DAMGO, 25° C., 2.5 h
T1 construct: Following incubation with the mu selective peptide ligand, ˜0.8 nM [^3H]DAMGO; from tissue; host or cells: rat forebrain homogenate (male Wistar rats), particulate membrane preparation

delta opioid receptor = molecular target: T2, delta opioid receptor (Rattus norvegicus, UniProt P33533); assay: Rat Brain Delta Opioid Receptor Binding Assay; conditions: rat forebrain membrane preparation; [3H]DPDPE or [3H]naltrindole, 25° C., 2.5 h
T2 construct: from tissue; host or cells: rat forebrain homogenate (male Wistar rats), particulate membrane preparation
T2 sequence (P33533 whole entry): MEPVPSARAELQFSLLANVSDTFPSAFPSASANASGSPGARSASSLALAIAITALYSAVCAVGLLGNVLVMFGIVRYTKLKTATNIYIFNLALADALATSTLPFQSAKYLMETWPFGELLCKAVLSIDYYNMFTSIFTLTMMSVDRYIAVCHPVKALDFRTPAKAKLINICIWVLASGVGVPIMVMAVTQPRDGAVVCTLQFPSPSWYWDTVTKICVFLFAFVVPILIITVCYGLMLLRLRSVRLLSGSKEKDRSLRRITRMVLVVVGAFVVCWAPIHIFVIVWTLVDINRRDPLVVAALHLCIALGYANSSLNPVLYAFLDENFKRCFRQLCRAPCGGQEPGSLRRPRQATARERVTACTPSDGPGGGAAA

T1 sequence (P33535 whole entry): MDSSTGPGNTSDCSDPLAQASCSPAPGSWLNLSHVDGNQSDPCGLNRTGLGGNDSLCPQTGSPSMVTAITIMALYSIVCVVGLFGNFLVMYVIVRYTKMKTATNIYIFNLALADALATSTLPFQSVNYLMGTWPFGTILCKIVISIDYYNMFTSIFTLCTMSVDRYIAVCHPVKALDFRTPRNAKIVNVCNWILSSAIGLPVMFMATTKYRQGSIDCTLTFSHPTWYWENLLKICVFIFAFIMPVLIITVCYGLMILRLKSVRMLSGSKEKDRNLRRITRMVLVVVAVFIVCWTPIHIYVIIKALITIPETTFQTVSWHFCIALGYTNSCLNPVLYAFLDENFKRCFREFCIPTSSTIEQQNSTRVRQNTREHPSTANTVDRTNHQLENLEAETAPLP

Row | SMILES | Ki (mu opioid receptor) | Ki (delta opioid receptor)
1 | CC(=O)Nc1ccccc1-c1ccc2c(c1)Sc1ccccc1N2C1C[C@H]2CC[C@@H](C1)N2Cc1ncc[nH]1 (mixture of isomers) [Compound 15i, N-(2-{10-[8-(1H-Imidazol-2-ylmethyl)-8-aza-bicyclo[3.2.1]oct-3-yl]-10H-phenothiazin-3-yl}-phenyl)-acetamide] | 169 nM | 630 nM
2 | COC(=O)c1ccc2c(c1)Oc1ccccc1N2C1CC2CCC(C1)N2C (stereo not drawn) [Compound 2a, 10-(8-Methyl-8-aza-bicyclo[3.2.1]oct-3-yl)-10H-phenoxazine-3-carboxylic acid methyl ester] | 5150 nM | 697 nM
3 | O=c1[nH]c(-c2ccc3c(c2)Oc2ccccc2N3[C@H]2C[C@H]3CC[C@@H](C2)N3CCc2ccccc2)no1 [Compound 7d, Endo-3-[10-(8-Phenethyl-8-aza-bicyclo[3.2.1]oct-3-yl)-10H-phenoxazin-3-yl]-4H-[1,2,4]oxadiazol-5-one] | 123 nM | 2630 nM
4 | CC(=O)Nc1ccccc1-c1ccc2c(c1)Sc1ccccc1N2C1C[C@H]2CC[C@@H](C1)N2C (mixture of isomers) [Compound 16i, N-{2-[10-(8-Methyl-8-aza-bicyclo[3.2.1]oct-3-yl)-10H-phenothiazin-3-yl]-phenyl}-acetamide] | 2650 nM | 1450 nM
5 | CC(C)=CCN1[C@@H]2CC[C@H]1CC(N1c3ccccc3Sc3cc(-c4ccncc4)ccc31)C2 (mixture of isomers) [Compound 10i, 10-[8-(3-Methyl-but-2-enyl)-8-aza-bicyclo[3.2.1]oct-3-yl]-3-pyridin-4-yl-10H-phenothiazine] | 317 nM | 949 nM
6 | CC(C)=CCN1[C@@H]2CC[C@H]1CC(N1c3ccccc3Sc3cc(-c4cccnc4)ccc31)C2 (mixture of isomers) [Compound 8i, 10-[8-(3-Methyl-but-2-enyl)-8-aza-bicyclo[3.2.1]oct-3-yl]-3-pyridin-3-yl-10H-phenothiazine] | 889 nM | 444 nM
